# Like-named read-outs stand apart in the source and are kept apart here.
# Assays:
# [1] = test system: Salmonella Typhimurium TA102; test: Ames test, plate incorporation method, TA102; format: cell-based; settings: positive control
# Experimental: (§1) Salmonella Typhimurium TA97a, TA98, TA100, TA102, and TA1535 from MOLT OX, USA, were purchased from Shanghai Bioplus Biotech. Co., Ltd. The test was carried out using Salmonella typhimurium strains that were identified as meeting the requirements.
# (§2) Rat liver S9 from Shanghai Bioplus Biotech. Co., Ltd.
# (§3) The experiments were performed using the plate incorporation method.
# (§4) Dose selection: The experiments were performed using 5 mg, 2.5 mg, 1.25 mg, 0.625 mg, 0.3125 mg, and 0.15625 mg per dish.
# (§5) Test substance preparation: nitrosamine impurity compound P08 was prepared to a solution of 50 mg/ml with dimethyl-sulfoxide, and diluted with dimethyl-sulfoxide to give the solutions of 25 mg/ml, 12.5 mg/ml, 6.25 mg/ml, 3.125 mg/ml, and 1.5625 mg/ml successively.
# (§6) 0.1 ml of frozen bacterial solutions TA97a, TA98, TA100, TA102 and TA1535 were inoculated into the 10 ml nutrient broth mediums respectively, and cultured at 37° C. (100/min) for 10 h with shaking (100 times/min). 2.0 ml of top layer medium containing 0.5 mmol/L histidine −0.5 mmol/L biotin was dispensed into test tubes, sterilized by 0.103 MPa for 20 min, and kept in a water bath at 50° C. Then, 0.1 ml of the test substance solution, 0.5 ml of the S9 mixture (when metabolic activation was required) and 0.1 ml of the bacterial solution were added into each tube successively, mixed sufficiently, and poured into the bottom layer agar plates quickly. Then, the plates were turned to distribute even. After being placed horizontally for condensation and solidification, the plates were inverted and incubated in an incubator at 37° C. for 48 h, and the number of reverse mutation colonies per dish was counted. Three parallel plates of each dose were made, containing the spontaneous reverse mutation group, the solvent control group and the positive control group.
# (§7) The data were expressed as means±standards deviation (x±s), and SPSS 19.0 was used for calculation of data analysis.
# (§8) If the test substance tested by the above test strain is negative both with and without S9, then the test substance is determined to be mutagenic negative.
# [2] = test system: Salmonella Typhimurium TA1535; format: cell-based; settings: positive control
# Experimental: as §1, §2, §3, §4, §5, §6, §7, §8
# [3] = test system: Salmonella Typhimurium TA98; test: Ames test, plate incorporation method, TA98; format: cell-based; settings: positive control, TA98, −S9, 50 μg/dish
# Experimental: (§9) Salmonella Typhimurium TA97a, TA98, TA100, TA102, and TA1535 from MOLT OX, USA, were purchased from Shanghai Bioplus Biotech.
# as §2, §3, §4, §6, §7, §8
# [4] = test system: Salmonella Typhimurium TA97a; test: Ames test, plate incorporation method, TA97a; format: cell-based; settings: positive control, −S9, 50 μg/dish
# Experimental: as §9, §2, §3, §4, §6, §7, §8
# [5] = test system: Salmonella Typhimurium TA100; test: Ames test, plate incorporation method, TA100; format: cell-based; settings: positive control, TA100, −S9, 1 μl/dish
# Experimental: as §9, §2, §3, §4, §6, §7, §8
# [6] = Content of nitrosamine impurity P08 in varenicline tartrate tablets, initial and at high temperature (HPLC Q-Exactive-MS/MS); format: physicochemical
# Experimental: After ultrasound for 5 min, the pH of the dispersion was measured. The content of the nitrosamine impurity P08 in the varenicline tartrate tablets were measured by HPLC Q-Exactive-MS/MS (Vanquish HPLC Q-Exactive-MS/MS).
# Wherein, • “API” (Active Pharmaceutical Ingredient) refers to the API of varenicline tartrate. • “Initial” refers to the immediate measurement after the preparation of the varenicline tartrate tablet. • “Measurement at high-temperature” refers to the measurement after keeping at 60° C. of the prepared varenicline tartrate tablet for a period of time (see “Chinese Pharmacopoeia”). • Symbol * refers to the liquid sample after adjusting the pH value, and the liquid sample is tested. • Symbol # refers to the liquid sample after adjusting the pH value which is subjected to a high temperature test, and then the liquid sample is tested.
# Methodologically validated HPLC Q-Exactive-MS/MS (Vanquish HPLC Q-Exactive-MS/MS) was used for the qualitative and/or quantitative determination of nitrosamine impurity P08 in varenicline tartrate tablets. The measurement results are shown in Example 4.
# Sample solution: 10 varenicline tartrate tablets were placed in a 10 ml volumetric flask, added with 3 mL of purified water and 3 mL of acetonitrile, sonicated for 30s, then diluted with acetonitrile to volume and mixed evenly.
# C (ppm)=the concentration (ng/ml) of P08 in the sample solution/the concentration (mg/ml) of varenicline tartrate in the sample solution.
compound,measurement,setting,value
"O=C1c2cccc(O)c2C(=O)c2c(O)cccc21 [1,8-dihydroxyanthraquinone, reference compound]",number of reverse mutation colonies per dish (x ± s),"[1]; TA102, +S9, 50 μg/dish",921 ± 32
"O=P1(N(CCCl)CCCl)NCCCO1 (stereo not shown) [Cyclophosphamide, cyclophosphamide, reference compound]",number of reverse mutation colonies per dish (x ± s),"[2]; TA1535, +S9, 200 μg/dish",171 ± 11
"CN(C)c1ccc(N=NS(=O)(=O)[O-])cc1.[Na+] [Dexon, reference compound]",number of reverse mutation colonies per dish (x ± s),[3],691 ± 43
same,number of reverse mutation colonies per dish (x ± s),[4],1294 ± 64
"COS(C)(=O)=O [Methyl methanesulfonate, methyl methanesulfonate, reference compound]",number of reverse mutation colonies per dish (x ± s),"[1]; TA102, −S9, 1 μl/dish",2418 ± 257
same,number of reverse mutation colonies per dish (x ± s),[5],1596 ± 71
"[N-]=[N+]=[N-] [Sodium azide, sodium azide, reference compound]",number of reverse mutation colonies per dish (x ± s),"[2]; TA1535, −S9, 1.5 μg/dish",570 ± 46
varenicline tartrate [API],P08 in API,[6]; API of varenicline tartrate used for blue coating tablets,0.511 ppm
same,P08 in API,[6]; API of varenicline tartrate used for core tablets,0.511 ppm
same,P08 in API,[6]; API of varenicline tartrate used for white coating tablets,0.511 ppm

# — US20240374609A1, “NITROSAMINE IMPURITY, VARENICLINE PHARMACEUTICAL COMPOSITION CAPABLE OF REDUCING GENERATION OF NITROSAMINE IMPURITIES AND PREPARATION AND USE THEREOF” (VIWIT PHARMACEUTICALCO., LTD., priority 2021, published 2024)
